Like-named read-outs stand apart in the source and are kept apart here.
Molecular target: TNFα trimer (Homo sapiens, UniProt P01375)
Assay: TNFα FP Competitive Binding Assay
In short: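 Fluorescence polarization displacement: 20 nM TNFα trimer (60 nM protein) with 1 nM fluorescein-labelled bis-isoquinoline probe in HEPES/NaCl/EDTA/Triton X-100 buffer. 12-point 1:3 compound series, top final 338 μM (3.4% DMSO) or 100 μM (2.0% DMSO); 18-24 h at 37 °C, then 1 h rt before background-subtracted mP read; variable-slope curve fit.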

[1] = TNFα FP competitive binding assay, class symbols A/B/C, read-out: TNF IC50
[2] = fluorescence polarization competition, 20 nM TNFα trimer, 1 nM OregonGreen488 probe, read-out: TNF IC50 (TNFα FP binding assay IC50)

TNFα trimer, sequence (P01375 77-233 limits assumed): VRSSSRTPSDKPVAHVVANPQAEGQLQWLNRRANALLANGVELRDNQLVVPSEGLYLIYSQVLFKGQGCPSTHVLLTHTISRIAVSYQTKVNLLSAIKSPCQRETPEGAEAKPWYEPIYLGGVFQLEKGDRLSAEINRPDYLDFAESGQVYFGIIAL

SMILES	IC50 [1] [µM]	also measured
O=c1cc(-c2ccc3nc4n(c3n2)[C@@H](c2ccccc2)CC4)ccn1C1CCOCC1 [AW.5]	10 to 100	–
c1ccc([C@H]2CCc3nc4ccc(-c5cnn(C6CCOCC6)c5)nc4n32)cc1 [AW.6]	1 to 10	–
O[C@H]1CC[C@H](Oc2cc(-c3ccc4nc5n(c4n3)C3(COC5)COc4ccccc43)ccn2)CC1 (stereo partly shown) [AX.1]	< 1	–
O[C@H]1CC[C@@H](Oc2cc(-c3ccc4nc5n(c4n3)C3(COC5)COc4ccccc43)ccn2)CC1 (stereo partly shown) [AX.2]	1 to 10	–
OC1CCC(Oc2cc(-c3ccc4nc5n(c4n3)C3(COC5)COc4ccccc43)ccn2)C1 (stereo not shown) [AX.3]	< 1	–
c1nc(N2CCOCC2)ncc1-c1ccc2nc3c(n2n1)C1(CCCCC1)OCC3 [AY.1]	1 to 10	–
c1ccc2c(c1)OCCC21OCCc2nc3ccc(-c4cnc(N5CCOCC5)nc4)nn3c21 (stereo not shown) [AY.2]	< 1	–
OC1CCN(c2ncc(-c3ccc4nc5n(c4n3)C(c3ccccc3)COC5)cn2)CC1(F)F (stereo not shown) [AZ.1]	< 1	–
OC1CCN(c2ncc(-c3ccc4nc5n(c4n3)C(c3ccccc3)COC5)cn2)CC1 (stereo not shown) [AZ.2]	< 1	–
c1ccc(C2COCc3nc4ccc(-c5cnc(N6CCCOCC6)nc5)nc4n32)cc1 (stereo not shown) [AZ.3]	1 to 10	–
OCC1CCCN(c2ncc(-c3ccc4nc5n(c4n3)C(c3ccccc3)COC5)cn2)C1 (stereo not shown) [AZ.4]	< 1	–
OCC1(F)CCN(c2ncc(-c3ccc4nc5n(c4n3)C(c3ccccc3)COC5)cn2)CC1 (stereo not shown) [AZ.5]	< 1	–
CC(O)C(=O)N1CCN(c2ncc(-c3ccc4nc5n(c4n3)C(c3ccccc3)COC5)cn2)CC1 (stereo not shown) [AZ.6]	1 to 10	–
O=C(CO)N1CCN(c2ncc(-c3ccc4nc5n(c4n3)C(c3ccccc3)COC5)cn2)CC1 (stereo not shown) [AZ.7]	< 1	–
CC(C)(O)c1ncc(-c2ccc3nc4n(c3c2)C(c2cccc(F)c2)CC4)cn1 (stereo not shown) [B.1]	–	IC50 [2]: < 1 µM
Cc1ccc(C)c(C2CCc3nc4ccc(-c5cnc(C(C)(C)O)nc5)cc4n32)c1 (stereo not shown) [B.2, 2-(5-(1-(2,5-Dimethylphenyl)-2,3-dihydro-1H-benzo[d]pyrrolo[1,2-a]imidazol-7-yl)pyrimidin-2-yl)propan-2-ol]	–	IC50 [2]: < 1 µM
COc1ncc(-c2ccc3nc4n(c3n2)C2(CCOc3ccccc32)COC4)cn1 (stereo not shown) [BA.1]	1 to 10	–
CCOc1ncc(-c2ccc3nc4n(c3n2)C2(CCOc3ccccc32)COC4)cn1 (stereo not shown) [BA.2]	< 1	–
CS(=O)(=O)c1ncc(-c2ccc3nc4n(c3n2)C2(CCOc3ccccc32)COC4)cn1 (stereo not shown) [BA.3]	1 to 10	–
c1ccc2c(c1)OCCC21COCc2nc3ccc(-c4cnc(N5CCCNCC5)nc4)nc3n21 (stereo not shown) [BA.4]	1 to 10	–
CC(C)Nc1ncc(-c2ccc3nc4n(c3n2)C2(CCOc3ccccc32)COC4)cn1 (stereo not shown) [BA.5]	1 to 10	–

SMILES	IC50 [1] [µM]	also measured
c1ccc2c(c1)OCCC21COCc2nc3ccc(-c4cnc(N5CCOCC5)nc4)nc3n21 (stereo not shown) [BA.6]	< 1	–
CC(C)(O)c1ncc(-c2ccc3nc4n(c3n2)C2(CCOc3ccccc32)COC4)cn1 (stereo not shown) [BA.7]	1 to 10	–
c1ccc2c(c1)OCCC21COCc2nc3ccc(-c4ccnc(OC5CCOCC5)c4)nc3n21 (stereo not shown) [BA.8]	< 1	–
O=C1NC[C@@H]2CN(c3ncc(-c4ccc5nc6n(c5n4)C4(CCOc5ccccc54)COC6)cn3)CCN12 (stereo partly shown) [BB.1]	< 1	–
OC1CCN(c2ncc(-c3ccc4nc5n(c4n3)C3(CCOc4ccccc43)COC5)cn2)CC1 (stereo not shown) [BB.2]	< 1	–
OC1CCCN(c2ncc(-c3ccc4nc5n(c4n3)C3(CCOc4ccccc43)COC5)cn2)C1 (stereo not shown) [BB.3]	< 1	–
OC1CN(c2ncc(-c3ccc4nc5n(c4n3)C3(CCOc4ccccc43)COC5)cn2)C1 (stereo not shown) [BB.4]	< 1	–
OC1CCN(c2ncc(-c3ccc4nc5n(c4n3)C3(CCOc4ccccc43)COC5)cn2)C1 (stereo not shown) [BB.5]	< 1	–
OC1CC(Nc2ncc(-c3ccc4nc5n(c4n3)C3(CCOc4ccccc43)COC5)cn2)C1 (stereo not shown) [BB.6]	1 to 10	–
CC1(O)CN(c2ncc(-c3ccc4nc5n(c4n3)C3(CCOc4ccccc43)COC5)cn2)C1 (stereo not shown) [BB.7]	1 to 10	–
CN1CCN(c2ncc(-c3ccc4nc5n(c4n3)C3(CCOc4ccccc43)COC5)cn2)CC1 (stereo not shown) [BB.8]	1 to 10	–
COCCOc1cc(-c2ccc3nc4n(c3n2)[C@@H](c2ccccc2)CC4)ccn1 [BC.1]	1 to 10	–
CC(C)(O)COc1cc(-c2ccc3nc4n(c3n2)[C@@H](c2ccccc2)CC4)ccn1 [BC.2]	1 to 10	–
c1ccc(C2C3CC(C3)c3nc4ccc(-c5ccnc(OC6CCOCC6)c5)nc4n32)cc1 (stereo not shown) [BD.1]	1 to 10	–
c1ccc(C2C3CC(C3)c3nc4ccc(-c5cnc(N6CCOCC6)nc5)nc4n32)cc1 (stereo not shown) [BE.1]	1 to 10	–
C1=C(c2ccc3nc4n(c3n2)C2(COC4)COc3ccccc32)CNC1 (stereo not shown) [BF.1]	1 to 10	–
CNCC(=O)N1CC=C(c2ccc3nc4n(c3n2)C2(COC4)COc3ccccc32)CC1 (stereo not shown) [BF.2]	1 to 10	–
c1ccc2c(c1)OCC21COCc2nc3ccc(-c4ccnc(OC5CCOCC5)c4)nc3n21 (stereo not shown) [BG.1]	1 to 10	–
COc1ncc(-c2ccc3nc4n(c3n2)C2(COC4)COc3ccccc32)cn1 (stereo not shown) [BG.2]	1 to 10	–
C[C@H]1CN(c2ncc(-c3ccc4nc5n(c4n3)C3(COC5)COc4ccccc43)cn2)CCN1C(=O)COC(C)(C)C (stereo partly drawn) [BG.3, 2-(tert-Butoxy)-1-((2S)-4-(5-(6′,8′-dihydro-2H-spiro[benzofuran-3,9′-pyrido[3′,2′:4,5]imidazo[2,1-c][1,4]oxazin]-2′-yl)pyrimidin-2-yl)-2-methylpiperazin-1-yl)ethanone]	1 to 10	–
C[C@H]1CN(C(=O)COC(C)(C)C)CCN1c1ncc(-c2ccc3nc4n(c3n2)C2(COC4)COc3ccccc32)cn1 (stereo partly drawn) [BG.4, 1-((3S)-4-(5-(2H,6′H,8′H-Spiro[benzofuran-3,9′-pyrido[3′,2′:4,5]imidazo[2,1-c][1,4]oxazin]-2′-yl)pyrimidin-2-yl)-3-methylpiperazin-1-yl)-2-(tert-butoxy)ethan-1-one]	1 to 10	–

SMILES	IC50 [1] [µM]	also measured
C[C@@H]1CN(C(=O)COC(C)(C)C)CCN1c1ncc(-c2ccc3nc4n(c3n2)C2(COC4)COc3ccccc32)cn1 (stereo partly drawn) [BG.5, 1-((3R)-4-(5-(2H,6′H,8′H-Spiro[benzofuran-3,9′-pyrido[3′,2′:4,5]imidazo[2,1-c][1,4]oxazin]-2′-yl)pyrimidin-2-yl)-3-methylpiperazin-1-yl)-2-(tert-butoxy)ethan-1-one]	1 to 10	–
C[C@@H]1CN(c2ncc(-c3ccc4nc5n(c4n3)C3(COC5)COc4ccccc43)cn2)CCN1C(=O)COC(C)(C)C (stereo partly drawn) [BG.6, 1-((2R)-4-(5-(2H,6′H,8′H-Spiro[benzofuran-3,9′-pyrido[3′,2′:4,5]imidazo[2,1-c][1,4]oxazin]-2′-yl)pyrimidin-2-yl)-2-methylpiperazin-1-yl)-2-(tert-butoxy)ethan-1-one]	< 1	–
C[C@H]1CN(C(=O)CO)CCN1c1ncc(-c2ccc3nc4n(c3n2)C2(COC4)COc3ccccc32)cn1 (stereo partly shown) [BH.1]	< 1	–
C[C@@H]1CN(C(=O)CO)CCN1c1ncc(-c2ccc3nc4n(c3n2)C2(COC4)COc3ccccc32)cn1 (stereo partly shown) [BH.2]	< 1	–
C[C@@H]1CN(c2ncc(-c3ccc4nc5n(c4n3)C3(COC5)COc4ccccc43)cn2)CCN1C(=O)CO (stereo partly shown) [BH.3]	< 1	–
COC(C)(C)CC(=O)N1CC=C(c2ccc3nc4n(c3n2)C2(COC4)COc3ccccc32)CC1 (stereo not shown) [BI.1]	1 to 10	–
OC1CCN(c2ncc(-c3ccc4nc5n(c4n3)[C@@]3(COC5)COc4ccccc43)cn2)CC1 [BJ.1]	< 1	–
O[C@H]1CC[C@@H](COc2cc(-c3ccc4nc5n(c4n3)[C@@H](c3ccccc3)CC5)ccn2)CC1 [BK.1]	–	IC50 (Table BK, read-out: TNF IC50): < 1 µM
O[C@H]1CC[C@H](COc2cc(-c3ccc4nc5n(c4n3)[C@@H](c3ccccc3)CC5)ccn2)CC1 [BK.2]	–	IC50 (Table BK, read-out: TNF IC50): 1 to 10 µM
OC[C@H]1CC[C@H](COc2cc(-c3ccc4nc5n(c4n3)[C@@H](c3ccccc3)CC5)ccn2)CC1 [BK.3]	–	IC50 (Table BK, read-out: TNF IC50): 1 to 10 µM
C[C@@H]1CN(c2ncc(-c3ccc4nc5n(c4n3)[C@@]3(COC5)COc4ccccc43)cn2)CCN1C(=O)CO [BL.1]	–	IC50 (Table BL, read-out: TNF IC50): < 1 µM
C[C@@H]1CN(c2ncc(-c3ccc4nc5n(c4n3)[C@]3(COC5)COc4ccccc43)cn2)CCN1C(=O)CO [BM.1]	–	IC50 (Table BM, read-out: TNF IC50): 1 to 10 µM
C[C@H]1CN(c2ncc(-c3ccc4nc5n(c4n3)[C@]3(COC5)COc4ccccc43)cn2)CCN1C(=O)CO [BM.2]	–	IC50 (Table BM, read-out: TNF IC50): 1 to 10 µM
COC(=O)CC1CC=C(c2ccc3nc4n(c3n2)[C@@H](c2ccccc2)CC4)CC1 (stereo partly shown) [BN.1]	–	IC50 (Table BN, read-out: TNF IC50): 1 to 10 µM
OC1CCN(c2ncc(-c3ccc4nc5n(c4n3)C3(COCc4ccccc43)COC5)cn2)CC1 (stereo not shown) [BO.1]	–	IC50 (Table BO, read-out: TNF IC50): 1 to 10 µM
O=C1NC[C@@H]2CN(c3ncc(-c4ccc5nc6n(c5n4)C4(COCc5ccccc54)COC6)cn3)CCN12 (stereo partly shown) [BO.2]	–	IC50 (Table BO, read-out: TNF IC50): < 1 µM
c1ccc2c(c1)COCC21COCc2nc3ccc(-c4cnc(N5CCOCC5)nc4)nc3n21 (stereo not shown) [BP.1]	–	IC50 (Table BP, read-out: TNF IC50): 1 to 10 µM
CC(C)(N)c1ncc(-c2ccc3nc4n(c3n2)[C@@H](c2ccccc2)CC4)cn1 [BQ.1]	–	IC50 (Table BQ, read-out: TNF IC50): 1 to 10 µM
c1ccc([C@@H]2CCc3nc4ccc(-c5cnc(N6CCOCC6)nc5)cc4n32)cc1 [C.1]	–	IC50 [2]: 10 to 100 µM

Reference: patent US20180179198A1, “TRICYCLIC MODULATORS OF TNF SIGNALING” (AbbVie Inc., priority 2015, published 2018)
